Experimental data as given in ChEMBL document CHEMBL3885861, “Open TG-GATES”.

Species on record: Rattus norvegicus
Experiment: Open TG-GATES - Regimen: Daily Repeat
Type: toxicity, organism-based, Sprague-Dawley
Parameters: regimen Daily Repeat, gender Male, age 6 weeks
Settings: in vivo, po, 15 mg/kg, route gavage, dose level Middle; for APTT / Bas / Eos / Fbg / Hb / Ht / Lym / MCH / MCHC / MCV / Mono / Neu / PT / Plat / RBC / Ret / WBC: tissue Blood; for LIVER: tissue Liver; for A/G / ALP / ALT / AST / BUN / CRE / Ca / Cl / DBIL / GLC / IP / K / LDH / Na / PL / RALB / TBIL / TC / TG / TP / gamma-GTP: tissue Plasma

C=C(C)[C@H]1Cc2c(ccc3c2O[C@@H]2COc4cc(OC)c(OC)cc4[C@@H]2C3=O)O1 [ROTENONE]
TERMINAL_BW (72 h, time 3 day): 217.2 g | APTT (72 h, time 3 day): 15.9 s | Bas (72 h, time 3 day): 0% | Eos (72 h, time 3 day): 1% | Fbg (72 h, time 3 day): 211.8 mg/dL | Hb (72 h, time 3 day): 13.1 g/dL | Ht (72 h, time 3 day): 40.2% | Lym (72 h, time 3 day): 71% | MCH (72 h, time 3 day): 20.9 pg | MCHC (72 h, time 3 day): 32.7% | MCV (72 h, time 3 day): 63.9 fL | Mono (72 h, time 3 day): 7.8% | Neu (72 h, time 3 day): 20.4% | PT (72 h, time 3 day): 11.8 s | Plat (72 h, time 3 day): 122 x10_4/uL | RBC (72 h, time 3 day): 628.8 x10_4/ul | Ret (72 h, time 3 day): 6.1% | WBC (72 h, time 3 day): 99.8 x10_2/uL | LIVER (72 h, time 3 day): 10.7 g | A/G (72 h, time 3 day): 2.2 | ALP (72 h, time 3 day): 1449.2 IU/L | ALT (72 h, time 3 day): 37.8 IU/L | AST (72 h, time 3 day): 70.6 IU/L | BUN (72 h, time 3 day): 17 mg/dL | CRE (72 h, time 3 day): 0.4 mg/dL | Ca (72 h, time 3 day): 11.8 mg/dL | Cl (72 h, time 3 day): 104.2 meq/L | DBIL (72 h, time 3 day): 0.014 mg/dL | GLC (72 h, time 3 day): 188.4 mg/dL | IP (72 h, time 3 day): 7.3 mg/dL | K (72 h, time 3 day): 4.3 meq/L | LDH (72 h, time 3 day): 117 IU/L | Na (72 h, time 3 day): 141.8 meq/L | PL (72 h, time 3 day): 149.8 mg/dL | RALB (72 h, time 3 day): 3.7 g/dL | TBIL (72 h, time 3 day): 0.038 mg/dL | TC (72 h, time 3 day): 79.2 mg/dL | TG (72 h, time 3 day): 104.8 mg/dL | TP (72 h, time 3 day): 5.5 g/dL | gamma-GTP (72 h, time 3 day): 0.6 IU/L | TERMINAL_BW ([…], time 7 day): 254.3 g | TERMINAL_BW ([…], time 14 day): 305.1 g | TERMINAL_BW ([…], time 28 day): 389.3 g | APTT ([…], time 7 day): 17 s | Bas ([…], time 7 day): 0% | Eos ([…], time 7 day): 1% | Fbg ([…], time 7 day): 237.8 mg/dL | Hb ([…], time 7 day): 13.3 g/dL | Ht ([…], time 7 day): 40.4% | Lym ([…], time 7 day): 74.2% | MCH ([…], time 7 day): 20.6 pg | MCHC ([…], time 7 day): 32.8% | MCV ([…], time 7 day): 62.9 fL | Mono ([…], time 7 day): 5.8% | Neu ([…], time 7 day): 19.2% | PT ([…], time 7 day): 11.4 s | Plat ([…], time 7 day): 140.2 x10_4/uL | RBC ([…], time 7 day): 643.4 x10_4/ul | Ret ([…], time 7 day): 5% | WBC ([…], time 7 day): 113.4 x10_2/uL | APTT ([…], time 14 day): 15.6 s | Bas ([…], time 14 day): 0% | Eos ([…], time 14 day): 1% | Fbg ([…], time 14 day): 240.8 mg/dL | Hb ([…], time 14 day): 13.8 g/dL | Ht ([…], time 14 day): 41.7% | Lym ([…], time 14 day): 75.2% | MCH ([…], time 14 day): 20.6 pg | MCHC ([…], time 14 day): 33% | MCV ([…], time 14 day): 62.3 fL | Mono ([…], time 14 day): 3.8% | Neu ([…], time 14 day): 20.2% | PT ([…], time 14 day): 11.5 s | Plat ([…], time 14 day): 130 x10_4/uL | RBC ([…], time 14 day): 670.4 x10_4/ul | Ret ([…], time 14 day): 3.8% | WBC ([…], time 14 day): 127.2 x10_2/uL | APTT ([…], time 28 day): 18 s | Bas ([…], time 28 day): 0% | Eos ([…], time 28 day): 1.2% | Fbg ([…], time 28 day): 196.8 mg/dL | Hb ([…], time 28 day): 14.9 g/dL | Ht ([…], time 28 day): 45.4% | Lym ([…], time 28 day): 77.8% | MCH ([…], time 28 day): 18.9 pg | MCHC ([…], time 28 day): 32.8% | MCV ([…], time 28 day): 57.7 fL | Mono ([…], time 28 day): 5% | Neu ([…], time 28 day): 16.2% | PT ([…], time 28 day): 12.5 s | Plat ([…], time 28 day): 126.2 x10_4/uL | RBC ([…], time 28 day): 786 x10_4/ul | Ret ([…], time 28 day): 1.8% | WBC ([…], time 28 day): 111.5 x10_2/uL | LIVER ([…], time 7 day): 13 g | LIVER ([…], time 14 day): 14.1 g | LIVER ([…], time 28 day): 17.3 g | A/G ([…], time 7 day): 2.2 | ALP ([…], time 7 day): 1376.6 IU/L | ALT ([…], time 7 day): 35.4 IU/L | AST ([…], time 7 day): 67 IU/L | BUN ([…], time 7 day): 17.2 mg/dL | CRE ([…], time 7 day): 0.4 mg/dL | Ca ([…], time 7 day): 11.5 mg/dL | Cl ([…], time 7 day): 103.2 meq/L | DBIL ([…], time 7 day): 0.016 mg/dL | GLC ([…], time 7 day): 198.6 mg/dL | IP ([…], time 7 day): 7.4 mg/dL | K ([…], time 7 day): 4.3 meq/L | LDH ([…], time 7 day): 110.8 IU/L | Na ([…], time 7 day): 140.4 meq/L | PL ([…], time 7 day): 150.6 mg/dL | RALB ([…], time 7 day): 3.8 g/dL | TBIL ([…], time 7 day): 0.036 mg/dL | TC ([…], time 7 day): 82.4 mg/dL | TG ([…], time 7 day): 105.2 mg/dL | TP ([…], time 7 day): 5.6 g/dL | gamma-GTP ([…], time 7 day): 1 IU/L | A/G ([…], time 14 day): 2.1 | ALP ([…], time 14 day): 1261.6 IU/L | ALT ([…], time 14 day): 36.2 IU/L | AST ([…], time 14 day): 68.4 IU/L | BUN ([…], time 14 day): 18.4 mg/dL | CRE ([…], time 14 day): 0.4 mg/dL | Ca ([…], time 14 day): 11.6 mg/dL | Cl ([…], time 14 day): 105 meq/L | DBIL ([…], time 14 day): 0.01 mg/dL | GLC ([…], time 14 day): 188.6 mg/dL | IP ([…], time 14 day): 6.9 mg/dL | K ([…], time 14 day): 4.4 meq/L | LDH ([…], time 14 day): 103.6 IU/L | Na ([…], time 14 day): 139.6 meq/L | PL ([…], time 14 day): 140 mg/dL | RALB ([…], time 14 day): 3.9 g/dL | TBIL ([…], time 14 day): 0.028 mg/dL | TC ([…], time 14 day): 77.4 mg/dL | TG ([…], time 14 day): 95.2 mg/dL | TP ([…], time 14 day): 5.7 g/dL | gamma-GTP ([…], time 14 day): 1 IU/L | A/G ([…], time 28 day): 2 | ALP ([…], time 28 day): 1146.8 IU/L | ALT ([…], time 28 day): 29.2 IU/L | AST ([…], time 28 day): 62 IU/L | BUN ([…], time 28 day): 19.5 mg/dL | CRE ([…], time 28 day): 0.4 mg/dL | Ca ([…], time 28 day): 10.9 mg/dL | Cl ([…], time 28 day): 105.2 meq/L | DBIL ([…], time 28 day): 0.01 mg/dL | GLC ([…], time 28 day): 186 mg/dL | IP ([…], time 28 day): 5.7 mg/dL | K ([…], time 28 day): 4.5 meq/L | LDH ([…], time 28 day): 124.8 IU/L | Na ([…], time 28 day): 141 meq/L | PL ([…], time 28 day): 150.8 mg/dL | RALB ([…], time 28 day): 3.9 g/dL | TBIL ([…], time 28 day): 0.0325 mg/dL | TC ([…], time 28 day): 68.5 mg/dL | TG ([…], time 28 day): 180.2 mg/dL | TP ([…], time 28 day): 5.9 g/dL | gamma-GTP ([…], time 28 day): 1 IU/L
